Experimental data reported in ChEMBL document CHEMBL2413072, “Synthesis and in vitro anticancer studies of novel C-2 arylidene congeners of lantadenes” (2013).

Experiments:
Assay type in all cases: functional
[1] = tested on: RXF 393; assay: Growth inhibition of human RXF393 cells assessed as cell growth at 10^-4 M by sulforhodamine B assay; conditions: read-out: Activity
[2] = tested on: HCT-116; assay: Growth inhibition of human HCT116 cells by sulforhodamine B assay
[3] = tested on: SK-MEL-2; assay: Growth inhibition of human SK-MEL-2 cells assessed as cell growth at 10^-6 M by sulforhodamine B assay; conditions: read-out: Activity
[4] = tested on: DU-145; assay: Growth inhibition of human DU145 cells assessed as cell growth at 10^-7 M by sulforhodamine B assay; conditions: read-out: Activity
[5] = tested on: HL-60(TB); assay: Growth inhibition of human HL-60(TB) cells assessed as cell growth at 10^-7 M by sulforhodamine B assay; conditions: read-out: Activity
[6] = tested on: SNB-19; assay: Growth inhibition of human SNB19 cells assessed as cell growth at 10^-8 M by sulforhodamine B assay; conditions: read-out: Activity
[7] = tested on: UACC-62; assay: Growth inhibition of human UACC62 cells assessed as cell growth at 10^-4 M by sulforhodamine B assay; conditions: read-out: Activity
[8] = tested on: SK-MEL-5; assay: Growth inhibition of human SK-MEL-5 cells by sulforhodamine B assay
[9] = tested on: IGROV-1; assay: Growth inhibition of human IGROV1 cells assessed as cell growth at 10^-6 M by sulforhodamine B assay; conditions: read-out: Activity
[10] = tested on: HCT-15; assay: Growth inhibition of human HCT15 cells by sulforhodamine B assay
[11] = tested on: MDA-MB-231; assay: Growth inhibition of human MDA-MB-231 cells assessed as cell growth at 10^-8 M by sulforhodamine B assay; conditions: read-out: Activity
[12] = tested on: NCI-H23; assay: Growth inhibition of human NCI-H23 cells assessed as cell growth at 10^-6 M by sulforhodamine B assay; conditions: read-out: Activity
[13] = tested on: SR; assay: Growth inhibition of human SR cells assessed as cell growth at 10^-7 M by sulforhodamine B assay; conditions: read-out: Activity
[14] = tested on: SN12C; assay: Growth inhibition of human SN12C cells assessed as cell growth at 10^-6 M by sulforhodamine B assay; conditions: read-out: Activity
[15] = tested on: HT-29; assay: Growth inhibition of human HT-29 cells assessed as cell growth at 10^-7 M by sulforhodamine B assay; conditions: read-out: Activity
[16] = Growth inhibition of human Hs 578T cells assessed as cell growth at 10^-6 M by sulforhodamine B assay; conditions: read-out: Activity
[17] = tested on: U-251; assay: Growth inhibition of human U251 cells assessed as cell growth at 10^-4 M by sulforhodamine B assay; conditions: read-out: Activity
[18] = tested on: OVCAR-8; assay: Growth inhibition of human OVCAR8 cells assessed as cell growth at 10^-4 M by sulforhodamine B assay; conditions: read-out: Activity
[19] = tested on: SNB-19; assay: Growth inhibition of human SNB19 cells assessed as cell growth at 10^-6 M by sulforhodamine B assay; conditions: read-out: Activity
[20] = tested on: 786-0; assay: Growth inhibition of human 786-0 cells assessed as cell growth at 10^-8 M by sulforhodamine B assay; conditions: read-out: Activity
[21] = Growth inhibition of human HCC2998 cells assessed as cell growth at 10^-7 M by sulforhodamine B assay; conditions: HCC 2998, read-out: Activity
[22] = tested on: MCF7; assay: Growth inhibition of human MCF7 cells assessed as cell growth at 10^-6 M by sulforhodamine B assay; conditions: read-out: Activity
[23] = tested on: 786-0; assay: Growth inhibition of human 786-0 cells assessed as cell growth at 10^-4 M by sulforhodamine B assay; conditions: read-out: Activity
[24] = tested on: NCI-H522; assay: Growth inhibition of human NCI-H522 cells assessed as cell growth at 10^-4 M by sulforhodamine B assay; conditions: read-out: Activity

In the case of `C/C=C(/C)C(=O)O[C@@H]1CC(C)(C)C[C@H]2C3=CC[C@@H]4[C@@]5(C)CCC(=O)C(C)(C)[C@@H]5CC[C@@]4(C)[C@]3(C)CC[C@@]12C(=O)O` [LANTADENE A], the growth at 100 µM [1] was -15%, the GI50 ([2]; read-out: GI50) was 3.62 µM and the LC50 ([2]; read-out: LC50) was > 100 µM. The TGI ([2]; read-out: TGI) was > 100 µM, the GI50 ([2]; read-out: pGI50 (converted)) was 3.63 µM and the LC50 ([2]; read-out: pLC50 (converted)) was > 100 µM. The TGI ([2]; read-out: pTGI (converted)) was > 100 µM, the growth at 1 µM [3] was 108% and the growth at 0.1 µM [4] was 107%. For the same compound, the growth at 0.1 µM [5] was 96%, the growth at 0.01 µM [6] was 93% and the growth at 100 µM [7] was -70%. The GI50 ([8]; read-out: GI50) was 1.22 µM, the CC50 ([8]; read-out: LC50 (the source's name)) was > 100 µM and the TGI ([8]; read-out: TGI) was 4.3 µM. The GI50 ([8]; read-out: pGI50 (converted)) was 1.23 µM, the CC50 ([8]; read-out: pLC50 (the source's name) (converted)) was > 100 µM and the TGI ([8]; read-out: pTGI (converted)) was 4.27 µM. The growth at 1 µM [9] was 108%, the GI50 ([10]; read-out: GI50) was 3.17 µM and the LC50 (50% lethal concentration) ([10]; read-out: LC50) was > 100 µM. The TGI ([10]; read-out: TGI) was > 100 µM, the GI50 ([10]; read-out: pGI50 (converted)) was 3.16 µM and the LC50 (50% lethal concentration) ([10]; read-out: pLC50 (converted)) was > 100 µM. The TGI ([10]; read-out: pTGI (converted)) was > 100 µM, the growth at 0.01 µM [11] was 99% and the growth at 1 µM [12] was 97%. For the same compound, the growth at 0.1 µM [13] was 79%, the growth at 1 µM [14] was 85% and the growth at 0.1 µM [15] was 101%. It also gave a growth at 1 µM [16] of 91%, a growth at 100 µM [17] of 6% and a growth at 100 µM [18] of 24%. The growth at 1 µM [19] was 91%, the growth at 0.01 µM [20] was 95% and the growth at 0.1 µM [21] was 108%. The growth at 1 µM [22] was 87%, the growth at 100 µM [23] was 4% and the growth at 100 µM [24] was -4%.
